Data on 2 compounds can be found in US20170190705A1, “Compositions and Methods for Inhibiting BMP” (THE BRIGHAM AND WOMAN'S HOSPITAL, INC., priority 2014, published 2017).

The target of one assay is SRC (Homo sapiens, UniProt P12931). Nature of the assay: Kinome profiling SRC. The format is biochemical. Particulars: read-out: Inhibitory activity SRC; for inhibition at 0.1 µM: 100 nM. As to the method:
(§1) . The kinome-wide selectivity was determined following the methods previously reported by Mohedas et al., ACS Chem Biol 2013, 8, 1291-1302 and Sanvitale et al., PLoS One 2013, 8, e62721.

For the next assay, the target named is T1, P38δ (Homo sapiens, UniProt O15264).
T1 sequence (O15264 1-365): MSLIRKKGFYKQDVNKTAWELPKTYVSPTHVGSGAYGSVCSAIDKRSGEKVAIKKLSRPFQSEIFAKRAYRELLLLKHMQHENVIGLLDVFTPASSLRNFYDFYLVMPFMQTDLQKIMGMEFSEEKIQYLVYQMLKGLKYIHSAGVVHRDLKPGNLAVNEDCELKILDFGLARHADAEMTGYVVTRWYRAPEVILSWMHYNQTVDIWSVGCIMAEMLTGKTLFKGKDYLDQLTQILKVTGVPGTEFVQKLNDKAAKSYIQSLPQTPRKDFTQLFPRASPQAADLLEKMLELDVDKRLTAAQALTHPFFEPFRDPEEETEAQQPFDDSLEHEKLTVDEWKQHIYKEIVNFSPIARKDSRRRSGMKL
Nature of the assay: Kinome profiling P38δ. The format is biochemical. The settings on record: read-out: Inhibitory activity P38δ; for inhibition at 0.1 µM: 100 nM. As for the experimental part:
as §1

In another assay the target is FGR (Homo sapiens, UniProt P09769). Nature of the assay: Kinome profiling FGR. The format is biochemical. Particulars: read-out: Inhibitory activity FGR; for inhibition at 0.1 µM: 100 nM. As to the method: as §1
The target in another assay is T2, CAMK4 (Homo sapiens, UniProt Q16566).
T2 sequence (Q16566 1-473): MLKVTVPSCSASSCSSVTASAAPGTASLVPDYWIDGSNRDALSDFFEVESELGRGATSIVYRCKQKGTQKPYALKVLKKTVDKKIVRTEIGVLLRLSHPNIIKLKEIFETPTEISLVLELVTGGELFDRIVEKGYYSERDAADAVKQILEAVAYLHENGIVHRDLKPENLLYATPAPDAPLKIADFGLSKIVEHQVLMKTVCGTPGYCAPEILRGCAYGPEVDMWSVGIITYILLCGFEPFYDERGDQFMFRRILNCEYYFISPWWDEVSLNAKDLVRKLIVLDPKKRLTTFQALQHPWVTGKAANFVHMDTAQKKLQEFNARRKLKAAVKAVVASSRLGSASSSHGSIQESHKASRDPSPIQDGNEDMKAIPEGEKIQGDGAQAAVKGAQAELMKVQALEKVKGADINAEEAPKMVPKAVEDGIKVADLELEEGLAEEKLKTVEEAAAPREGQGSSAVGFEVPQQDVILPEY
Put plainly: Kinome profiling CAMK4. The format is biochemical. Particulars: read-out: Inhibitory activity CAMK4; for inhibition at 0.1 µM: 100 nM. As to the method:
as §1

A further assay has as its target AKT3 (Homo sapiens, UniProt Q9Y243). Nature of the assay: Kinome profiling AKT3. Particulars: read-out: Inhibitory activity AKT3; for inhibition at 0.1 µM: 100 nM. The format is biochemical. As for the experimental part: as §1
A further assay concerns the target JNK2 (Homo sapiens, UniProt P45984). Nature of the assay: Kinome profiling JNK2. The format is biochemical. Particulars: read-out: Inhibitory activity JNK2; for inhibition at 0.1 µM: 100 nM. As for the experimental part:
as §1

A further assay has as its target T3, PRKD2 (Homo sapiens, UniProt Q9BZL6).
T3 sequence (Q9BZL6 1-878): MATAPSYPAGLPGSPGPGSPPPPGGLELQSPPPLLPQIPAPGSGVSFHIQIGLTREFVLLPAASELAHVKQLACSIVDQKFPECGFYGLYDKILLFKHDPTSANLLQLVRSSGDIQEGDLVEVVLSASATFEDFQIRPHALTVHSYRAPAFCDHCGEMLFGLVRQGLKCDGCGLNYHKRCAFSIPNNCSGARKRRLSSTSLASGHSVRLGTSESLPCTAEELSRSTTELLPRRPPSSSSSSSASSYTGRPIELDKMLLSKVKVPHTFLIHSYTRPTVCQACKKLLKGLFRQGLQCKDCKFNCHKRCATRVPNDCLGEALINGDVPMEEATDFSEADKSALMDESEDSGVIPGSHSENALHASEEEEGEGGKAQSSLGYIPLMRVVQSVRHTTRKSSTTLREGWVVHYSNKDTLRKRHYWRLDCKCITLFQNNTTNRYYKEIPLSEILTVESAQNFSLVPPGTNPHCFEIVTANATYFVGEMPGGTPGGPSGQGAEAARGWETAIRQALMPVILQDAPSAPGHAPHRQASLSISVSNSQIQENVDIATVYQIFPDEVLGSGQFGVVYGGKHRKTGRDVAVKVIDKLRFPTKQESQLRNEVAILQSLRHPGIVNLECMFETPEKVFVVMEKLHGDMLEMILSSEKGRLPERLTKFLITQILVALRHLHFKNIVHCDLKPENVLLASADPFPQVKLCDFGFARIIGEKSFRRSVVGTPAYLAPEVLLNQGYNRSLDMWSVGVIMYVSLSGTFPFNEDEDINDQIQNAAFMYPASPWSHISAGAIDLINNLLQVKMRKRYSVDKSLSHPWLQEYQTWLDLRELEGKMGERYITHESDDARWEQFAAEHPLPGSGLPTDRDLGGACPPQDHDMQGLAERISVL
Put plainly: Kinome profiling PRKD2. The format is biochemical. Particulars: for inhibition at 0.1 µM: 100 nM. As for the experimental part:
as §1

Another assay concerns the target T4, caALK2 (Homo sapiens, UniProt Q04771, Q207D).
T4 construct: expressed in transfected cells; host or cells: C2C12 BRE-Luc cells infected with adenovirus (MOI 100)
Put plainly: Luciferase reporter assay constitutively active ALK2. The class given is cell-based. As to the method:
The cells were incubated for 1 h (37° C. and 10% CO2) and allowed to settle and attach. Compounds of interest or DMSO were diluted in DMEM and added at final compound concentrations of 1 nM to 10 μM. Cells were then incubated for 30 min. Adenovirus expressing constitutively active BMP and TGF-β type I receptors (Ad.caALK1-5), generously provided by Dr. Akiko Hata (University of to California at San Francisco), were added to achieve a multiplicity of infection (MOI) of 100. Plates were incubated overnight at 37° C. Cell viability was assayed with an MIT (3-(4,5-dimethylthiazol-2-yl)-2,5-diphenyl tetrazolium bromide) colorimetric assay (Promega) per the manufacturer's instructions. Media was discarded, and firefly luciferase activity was measured (Promega) according to manufacturer's protocol. Light output was measured using a Spectramax L luminometer (Molecular Devices) with an integration time of one second per well. Data was normalized to 100% of incremental BRE-Luc activity due to adenoviruses specifying caALK1, 2, or 3, or the incremental CAGA-Luc activity due to adenoviruses specifying caALK4 or 5.

Where [1] appears, read: read-out: Inhibitory activity PRKD2.
Setting [2] is: Table 4, read-out: Inhibitory Activity PRKD2.

Structures are written as SMILES. Read-outs that look alike come from different tables or passages of the source.

SRC, sequence (P12931 whole entry): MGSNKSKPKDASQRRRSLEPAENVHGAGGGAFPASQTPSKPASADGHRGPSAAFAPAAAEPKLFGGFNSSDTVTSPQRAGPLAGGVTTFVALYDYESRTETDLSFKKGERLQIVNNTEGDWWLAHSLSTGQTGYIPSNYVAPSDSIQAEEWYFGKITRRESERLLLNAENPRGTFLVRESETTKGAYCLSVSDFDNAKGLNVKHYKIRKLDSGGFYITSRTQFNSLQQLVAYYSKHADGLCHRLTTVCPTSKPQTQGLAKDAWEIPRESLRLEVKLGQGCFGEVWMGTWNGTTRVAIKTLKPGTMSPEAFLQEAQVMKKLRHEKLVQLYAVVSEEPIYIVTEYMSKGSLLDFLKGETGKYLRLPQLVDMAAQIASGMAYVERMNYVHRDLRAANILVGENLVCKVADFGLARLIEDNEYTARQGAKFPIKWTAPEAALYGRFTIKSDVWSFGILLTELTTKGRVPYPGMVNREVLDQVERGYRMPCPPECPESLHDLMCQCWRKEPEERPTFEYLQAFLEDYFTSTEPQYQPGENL
AKT3, sequence (Q9Y243 whole entry): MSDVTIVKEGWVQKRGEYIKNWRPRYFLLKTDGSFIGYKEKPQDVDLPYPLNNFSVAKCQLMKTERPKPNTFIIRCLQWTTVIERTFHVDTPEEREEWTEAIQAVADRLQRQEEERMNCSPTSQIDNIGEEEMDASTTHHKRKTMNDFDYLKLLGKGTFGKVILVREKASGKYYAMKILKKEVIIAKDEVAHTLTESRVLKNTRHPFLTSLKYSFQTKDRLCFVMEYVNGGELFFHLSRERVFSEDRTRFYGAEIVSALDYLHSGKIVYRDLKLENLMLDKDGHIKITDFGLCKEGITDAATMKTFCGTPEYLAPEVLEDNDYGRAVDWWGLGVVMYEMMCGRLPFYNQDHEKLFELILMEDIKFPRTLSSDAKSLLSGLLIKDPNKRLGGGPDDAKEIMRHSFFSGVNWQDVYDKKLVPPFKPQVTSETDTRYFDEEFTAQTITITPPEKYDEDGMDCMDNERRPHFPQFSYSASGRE
FGR, sequence (P09769 whole entry): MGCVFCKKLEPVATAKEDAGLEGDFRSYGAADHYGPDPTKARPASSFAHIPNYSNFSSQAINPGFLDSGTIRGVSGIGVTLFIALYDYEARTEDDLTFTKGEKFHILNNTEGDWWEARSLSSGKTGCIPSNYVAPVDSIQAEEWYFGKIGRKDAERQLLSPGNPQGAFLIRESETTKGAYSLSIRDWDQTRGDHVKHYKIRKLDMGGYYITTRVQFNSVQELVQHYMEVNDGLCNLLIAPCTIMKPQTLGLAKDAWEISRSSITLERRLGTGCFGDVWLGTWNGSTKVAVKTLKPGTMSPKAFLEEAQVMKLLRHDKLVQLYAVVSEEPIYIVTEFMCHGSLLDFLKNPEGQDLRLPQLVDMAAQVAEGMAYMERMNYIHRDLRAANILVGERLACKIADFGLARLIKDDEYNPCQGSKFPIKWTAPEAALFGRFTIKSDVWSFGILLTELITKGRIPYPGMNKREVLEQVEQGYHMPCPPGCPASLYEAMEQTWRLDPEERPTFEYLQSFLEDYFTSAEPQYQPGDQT
JNK2, sequence (P45984 whole entry): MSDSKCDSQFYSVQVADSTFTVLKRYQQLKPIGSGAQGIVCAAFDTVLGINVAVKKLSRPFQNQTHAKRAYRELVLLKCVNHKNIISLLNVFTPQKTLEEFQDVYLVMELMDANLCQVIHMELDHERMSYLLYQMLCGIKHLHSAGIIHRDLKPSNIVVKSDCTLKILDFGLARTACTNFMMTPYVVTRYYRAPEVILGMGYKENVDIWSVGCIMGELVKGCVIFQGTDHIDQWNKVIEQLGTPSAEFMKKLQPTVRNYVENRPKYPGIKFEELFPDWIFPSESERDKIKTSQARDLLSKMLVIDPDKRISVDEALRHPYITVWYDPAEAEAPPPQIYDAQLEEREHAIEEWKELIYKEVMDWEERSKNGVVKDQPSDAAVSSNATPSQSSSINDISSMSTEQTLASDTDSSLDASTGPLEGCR
T4 sequence (Q04771 21-509 Q207D): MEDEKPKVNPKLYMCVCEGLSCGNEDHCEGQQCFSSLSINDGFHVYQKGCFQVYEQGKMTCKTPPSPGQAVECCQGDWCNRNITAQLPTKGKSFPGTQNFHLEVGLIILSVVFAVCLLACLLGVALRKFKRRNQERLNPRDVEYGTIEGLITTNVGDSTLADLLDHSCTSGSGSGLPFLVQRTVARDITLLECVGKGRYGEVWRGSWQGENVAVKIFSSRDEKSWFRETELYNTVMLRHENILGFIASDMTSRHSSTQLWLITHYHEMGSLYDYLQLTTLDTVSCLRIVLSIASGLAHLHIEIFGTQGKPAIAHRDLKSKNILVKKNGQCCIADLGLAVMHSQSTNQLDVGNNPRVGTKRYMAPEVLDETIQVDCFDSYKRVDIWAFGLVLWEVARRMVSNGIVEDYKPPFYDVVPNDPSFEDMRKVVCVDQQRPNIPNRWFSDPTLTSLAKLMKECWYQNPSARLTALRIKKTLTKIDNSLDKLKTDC

As to `COc1cc(-c2cc(-c3ccc(N4CCNCC4)cc3)cnc2N)cc(OC)c1OC` [Compound 15, 5-(4-(piperazin-1-yl)phenyl)-3-(3,4,5-trimethoxyphenyl)pyridin-2-amine], the inhibition at 0.1 µM at SRC is 40%; at P38δ it was 2%; at FGR, 36%; on CAMK4 it was 21%; at AKT3 it was 0%; on JNK2, 2%. Moreover, at PRKD2 (setting [1]), the inhibition at 0.1 µM amounted to 12%. Moreover, the inhibition at 1 µM at SRC was 81%; on P38δ it was 1%; on FGR it was 76%; at CAMK4, -1%; at AKT3, 2%; at JNK2, 3%. Besides, the inhibition at 1 µM on PRKD2 (setting [1]) turned out to be 54%. Besides, the IC50 at caALK2 (read-out: Cell Based Assay caALK2 IC50) is 5 nM.

With `COc1cc(-c2cc(-c3ccc(N4CCNCC4)cc3)cnc2C)cc(OC)c1OC` [Compound 10, 1-(4-(6-methyl-5-(3,4,5-trimethoxyphenyl)pyridin-3-yl)phenyl)piperazine], the inhibition at 0.1 µM worked out at 8% on SRC; 1% at P38δ; 9% at FGR; 0% at CAMK4; 1% on AKT3; 0% at JNK2. For the same compound, the inhibition at 0.1 µM at PRKD2 (setting [2]) and at PRKD2 (setting [1]) was 16% throughout. The inhibition at 1 µM was 23% on SRC; -1% at P38δ; 36% at FGR; -1% on CAMK4; 1% at AKT3; 2% at JNK2. The inhibition at 1 µM on PRKD2 (setting [2]) and at PRKD2 (setting [1]) was 57% in each case. For the same compound, the potency result at caALK2 (comparison across multiple assays (Tables 6 and 7)) is reported as “reduction in potency”.
